#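 How tested: cells in 96-well plates exposed to compound for 48 hours at five concentrations. TGI is the concentration that stops growth completely.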
# What was measured:
# Test in all cases: growth of human tumour cells (NCI), 48 h
# [1] = test system: SN12C renal
# [2] = test system: SK-OV-3 ovarian
# [3] = test system: HCT-15 colon
# [4] = test system: HOP-62 NSCLC
# [5] = test system: ACHN renal
# [6] = test system: DU-145 prostate
# [7] = test system: UO-31 renal
# [8] = test system: CCRF-CEM leukemia
# [9] = test system: LOX IMVI melanoma
# [10] = test system: MALME-3M melanoma
# [11] = test system: SK-MEL-2 melanoma
# [12] = test system: HCC-2998 colon
# [13] = test system: T-47D breast
# [14] = test system: HT29 colon
# [15] = test system: M14 melanoma
# [16] = test system: SR leukemia
# [17] = test system: MDA-N
# [18] = test system: RXF 393 renal
# [19] = test system: U251 CNS
# [20] = test system: SF-268 CNS
# [21] = test system: EKVX NSCLC
# [22] = test system: HL-60(TB) leukemia
# [23] = test system: SNB-75 CNS
# [24] = test system: NCI-H226 lung
# [25] = test system: RPMI-8226 leukemia
# [26] = test system: HCT-116 colon
# [27] = test system: UACC-257 melanoma
# [28] = test system: OVCAR-5 ovarian
# [29] = test system: HS 578T breast
# [30] = test system: NCI-H522 lung
# [31] = test system: MCF7 breast
# [32] = test system: MDA-MB-231 breast
# [33] = test system: SF-539 CNS
# [34] = test system: A498 renal
# [35] = test system: UACC-62 melanoma
# [36] = test system: TK-10 renal
# [37] = test system: SNB-19 CNS
# [38] = test system: SK-MEL-28 melanoma
# [39] = test system: KM12 colon
# [40] = test system: MOLT-4 leukemia
# [41] = test system: BT-549 breast
# [42] = test system: MDA-MB-435
# [43] = test system: NCI-H23 lung
# [44] = test system: NCI-H460 lung
# [45] = test system: K-562 leukemia
# [46] = test system: OVCAR-3 ovarian
# [47] = test system: SW-620 colon
# [48] = test system: IGROV1 ovarian
# [49] = test system: COLO 205 colon
# [50] = test system: A549 NSCLC
# [51] = test system: HOP-92 NSCLC
# [52] = test system: NCI/ADR-RES ovarian
# [53] = test system: SK-MEL-5 melanoma
# [54] = test system: PC-3 prostate
# [55] = test system: OVCAR-4 ovarian
smiles,measurement,setting,value
CCC(=O)NC(Nc1ccc(O)cc1)(C(F)(F)F)C(F)(F)F,TGI,[1],> 100 µM
same,TGI,[2],> 100 µM
same,TGI,[3],> 100 µM
same,TGI,[4],> 100 µM
same,TGI,[5],> 100 µM
same,TGI,[6],> 100 µM
same,TGI,[7],> 100 µM
same,TGI,[8],> 100 µM
same,TGI,[9],> 100 µM
same,TGI,[10],> 100 µM
same,TGI,[11],> 100 µM
same,TGI,[12],> 100 µM
same,TGI,[13],> 100 µM
same,TGI,[14],> 100 µM
same,TGI,[15],> 100 µM
same,TGI,[16],> 100 µM
same,TGI,[17],35.3 µM
same,TGI,[18],> 100 µM
same,TGI,[19],> 100 µM
same,TGI,[20],> 100 µM
same,TGI,[21],> 100 µM
same,TGI,[22],46.5 µM
same,TGI,[23],> 100 µM
same,TGI,[24],> 100 µM
same,TGI,[25],> 100 µM
same,TGI,[26],> 100 µM
same,TGI,[27],> 100 µM
same,TGI,[28],> 100 µM
same,TGI,[29],> 100 µM
same,TGI,[30],66.6 µM
same,TGI,[31],> 100 µM
same,TGI,[32],> 100 µM
same,TGI,[33],> 100 µM
same,TGI,[34],> 100 µM
same,TGI,[35],> 100 µM
same,TGI,[36],> 100 µM
same,TGI,[37],> 100 µM
same,TGI,[38],> 100 µM
same,TGI,[39],> 100 µM
same,TGI,[40],> 100 µM
same,TGI,[41],> 100 µM
same,TGI,[42],65.7 µM
same,TGI,[43],> 100 µM
same,TGI,[44],> 100 µM
same,TGI,[45],> 100 µM
same,TGI,[46],> 100 µM
COc1cc(C2=C(C#N)C(N)OC3=C2COc2ccccc23)cc(OC)c1OC (stereo unspecified),TGI,[1],39.1 µM
same,TGI,[2],39.3 µM
same,TGI,[3],> 100 µM
same,TGI,[47],> 100 µM
same,TGI,[4],20.2 µM
same,TGI,[5],32.2 µM
same,TGI,[48],> 100 µM
same,TGI,[6],25.8 µM
same,TGI,[7],12.7 µM
same,TGI,[8],> 100 µM
same,TGI,[9],> 100 µM
same,TGI,[10],32.3 µM
same,TGI,[49],> 100 µM
same,TGI,[11],> 100 µM
same,TGI,[12],56.8 µM
same,TGI,[14],> 100 µM
same,TGI,[15],> 100 µM
same,TGI,[16],> 100 µM
same,TGI,[17],> 100 µM
same,TGI,[19],33.2 µM
same,TGI,[20],89.1 µM
same,TGI,[21],43.7 µM
same,TGI,[22],> 100 µM
same,TGI,[24],91.1 µM
same,TGI,[50],49.3 µM
same,TGI,[25],> 100 µM
same,TGI,[26],43.5 µM
same,TGI,[27],> 100 µM
same,TGI,[28],> 100 µM
same,TGI,[31],> 100 µM
same,TGI,[51],> 100 µM
same,TGI,[32],43.8 µM
same,TGI,[33],50.5 µM
same,TGI,[52],> 100 µM
same,TGI,[34],56.3 µM
same,TGI,[35],> 100 µM
same,TGI,[36],30.2 µM
same,TGI,[37],30.6 µM
same,TGI,[38],> 100 µM
same,TGI,[39],> 100 µM
same,TGI,[53],> 100 µM
same,TGI,[40],> 100 µM
same,TGI,[54],50.6 µM
same,TGI,[41],> 100 µM
same,TGI,[42],> 100 µM
same,TGI,[43],> 100 µM
same,TGI,[44],84.8 µM
same,TGI,[45],> 100 µM
same,TGI,[46],34.3 µM
same,TGI,[55],45.7 µM
